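How tested: cells in 96-well plates exposed to compound for 48 hours at five concentrations. GI50: concentration for 50% inhibition of growth. TGI is the concentration that stops growth completely.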
Key:
Experiment in all cases: NCI-60 cell line screen, 48 h
HCC-2998 colon = test system: HCC-2998 colon
OVCAR-3 ovarian = test system: OVCAR-3 ovarian
U251 CNS = test system: U251 CNS
HCT-116 colon = test system: HCT-116 colon
SK-MEL-2 melanoma = test system: SK-MEL-2 melanoma
HOP-92 NSCLC = test system: HOP-92 NSCLC
A549 NSCLC = test system: A549 NSCLC
HS 578T breast = test system: HS 578T breast
BT-549 breast = test system: BT-549 breast
T-47D breast = test system: T-47D breast

Row | SMILES | TGI (HCC-2998 colon) | TGI (OVCAR-3 ovarian) | TGI (U251 CNS) | TGI (HCT-116 colon) | TGI (SK-MEL-2 melanoma) | TGI (HOP-92 NSCLC) | TGI (A549 NSCLC) | TGI (HS 578T breast) | TGI (BT-549 breast) | TGI (T-47D breast) | GI50 (HCC-2998 colon) | GI50 (HS 578T breast) | GI50 (BT-549 breast) | GI50 (T-47D breast) | GI50 (OVCAR-3 ovarian) | GI50 (U251 CNS) | GI50 (HCT-116 colon) | GI50 (SK-MEL-2 melanoma) | GI50 (HOP-92 NSCLC) | GI50 (A549 NSCLC)
1 | COc1ccc2c3c1OC1CC(O)C=CC31CCN(C)C2 (stereo unspecified) | > 150 µM | > 150 µM | > 150 µM | > 150 µM | > 150 µM | > 150 µM | > 150 µM | – | – | – | – | – | – | – | – | – | – | – | – | –
2 | COC(=O)/C=C\Sc1ccn(/C=C\C(=O)OC)c(=S)n1 | > 100 µM | 26.7 µM | 39.9 µM | – | 46.9 µM | 47.7 µM | 50.7 µM | 78.9 µM | 44.9 µM | 46.1 µM | – | – | – | – | – | – | – | – | – | –
3 | CN(C)c1ccc(N2C(=S)SC(=Nc3ccccc3)C2=Nc2ccccc2)cc1 | > 100 µM | > 100 µM | > 100 µM | > 100 µM | > 100 µM | – | – | > 100 µM | > 100 µM | > 100 µM | – | – | – | – | – | – | – | – | – | –
4 | CC1(C)OP23(NC(=O)OC2(C(F)(F)F)c2ccccc2O3)OC1(C)C (stereo unspecified) | – | > 100 µM | > 100 µM | > 100 µM | > 100 µM | – | > 100 µM | – | – | – | – | – | – | – | – | – | – | – | – | –
5 | CCOC(=O)/C(O)=C1\C(=O)N(C)C(=O)C1c1ccc(OC)c(OC)c1 (stereo unspecified) | > 100 µM | > 100 µM | > 100 µM | > 100 µM | > 100 µM | > 100 µM | > 100 µM | – | – | – | – | – | – | – | – | – | – | – | – | –
6 | CC(=O)O[C@H]1CC[C@@]2(C)C(=CC[C@@H]3[C@@H]2CC[C@]2(C)C(c4cccnc4)=CC[C@@H]32)C1 | > 100 µM | > 100 µM | > 100 µM | > 100 µM | > 100 µM | 32.5 µM | > 100 µM | 71.3 µM | 17.3 µM | 55.7 µM | 14 µM | 3.38 µM | 2960 nM | 2810 nM | 5.52 µM | 4.47 µM | 4.49 µM | > 100 µM | 3.08 µM | 10.4 µM
